Laboratory results: ChEMBL document CHEMBL1201862, “PubChem BioAssay data set” (2004)
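Cultured in 96-well plates, cells were exposed to test compound for 48 hours across five concentrations. Abbreviation: GI50, concentration required for 50% inhibition of growth.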 The source made the active and inactive calls. Cut-off read from the data, not from the text of the source: active = GI50 up to about 1.1 µM and inactive = higher.

Assays:
Experiment in all cases: growth of human tumour cells (NCI), 48 h
U-251 = test system: U-251
SF-268 = test system: SF-268
SK-MEL-5 = test system: SK-MEL-5
SK-MEL-2 = test system: SK-MEL-2
NCI/ADR-RES = test system: NCI/ADR-RES
DU-145 = test system: DU-145
EKVX = test system: EKVX
NCI-H522 = test system: NCI-H522
LOX IMVI = test system: LOX IMVI
Hs-578T = test system: Hs-578T
M14 = test system: M14
SF-539 = test system: SF-539
HCC 2998 = test system: HCC 2998
OVCAR-5 = test system: OVCAR-5
Malme-3M = test system: Malme-3M
MDA-MB-231 = test system: MDA-MB-231
OVCAR-8 = test system: OVCAR-8
COLO 205 = test system: COLO 205
T47D = test system: T47D
HL-60 = test system: HL-60

Compound | GI50 (U-251) | GI50 (SF-268) | GI50 (SK-MEL-5) | GI50 (SK-MEL-2) | GI50 (NCI/ADR-RES) | GI50 (DU-145) | GI50 (EKVX) | GI50 (NCI-H522) | GI50 (LOX IMVI) | GI50 (Hs-578T) | GI50 (M14) | GI50 (SF-539) | GI50 (HCC 2998) | GI50 (OVCAR-5) | GI50 (Malme-3M) | GI50 (MDA-MB-231) | GI50 (OVCAR-8) | GI50 (COLO 205) | GI50 (T47D) | GI50 (HL-60)
COc1c2c(cc3nc4ccccc4nc13)CC[C@H](NC(C)=O)c1cc(=O)c(SC)ccc1-2 | 0.353 µM (active) | 1.15 µM (inactive) | 0.412 µM (active) | 3.05 µM (inactive) | 12.5 µM (inactive) | 2.47 µM (inactive) | 1.01 µM (active) | 0.275 µM (active) | 0.755 µM (active) | 0.126 µM (active) | 0.55 µM (active) | 0.304 µM (active) | 1.25 µM (inactive) | 24.5 µM (inactive) | 0.288 µM (active) | 2.96 µM (inactive) | 1.63 µM (inactive) | 0.283 µM (active) |  | 
Cc1nnc(Nc2ccccc2)o1 | > 100 µM (inactive) | > 100 µM (inactive) | > 100 µM (inactive) | 70.8 µM (inactive) | > 100 µM (inactive) | > 100 µM (inactive) | > 100 µM (inactive) | > 100 µM (inactive) | > 100 µM (inactive) |  | > 100 µM (inactive) | > 100 µM (inactive) |  | > 100 µM (inactive) | > 100 µM (inactive) |  | > 100 µM (inactive) | > 100 µM (inactive) | > 100 µM (inactive) | > 100 µM (inactive)
COc1ccc(C#Cn2nnc3ccccc32)cc1 | > 100 µM (inactive) | 91.2 µM (inactive) | > 100 µM (inactive) | 92 µM (inactive) | > 100 µM (inactive) | 41 µM (inactive) | 32.8 µM (inactive) | 48 µM (inactive) | > 100 µM (inactive) | > 100 µM (inactive) | > 100 µM (inactive) | > 100 µM (inactive) | 26.2 µM (inactive) | > 100 µM (inactive) | > 100 µM (inactive) | > 100 µM (inactive) | > 100 µM (inactive) | > 100 µM (inactive) |  | 21.6 µM (inactive)
COC(=O)[C@H](Cc1ccc(OC(C)(C)C)cc1)N[C@H](C)C(=O)N[C@@H](Cc1ccccc1)C(=O)OCc1ccccc1 | > 100 µM (inactive) | > 100 µM (inactive) | > 100 µM (inactive) |  | > 100 µM (inactive) | > 100 µM (inactive) | > 100 µM (inactive) | > 100 µM (inactive) | 34.4 µM (inactive) | > 100 µM (inactive) | 52.4 µM (inactive) | > 100 µM (inactive) | > 100 µM (inactive) | > 100 µM (inactive) | > 100 µM (inactive) | > 100 µM (inactive) | 52.2 µM (inactive) | 96.6 µM (inactive) |  | 45.5 µM (inactive)
NC(=O)C(=CN1C(=O)CC(=O)NC1=S)C(N)=O | > 100 µM (inactive) | > 100 µM (inactive) | > 100 µM (inactive) | > 100 µM (inactive) | > 100 µM (inactive) | > 100 µM (inactive) | > 100 µM (inactive) |  | > 100 µM (inactive) |  | > 100 µM (inactive) | > 100 µM (inactive) | > 100 µM (inactive) | > 100 µM (inactive) |  | > 100 µM (inactive) | > 100 µM (inactive) | > 100 µM (inactive) | > 100 µM (inactive) | > 100 µM (inactive)
COc1ccc(/C=C2\CCC(CNc3ccc(Br)cc3)C2=O)cc1 (centres undefined) | > 100 µM (inactive) | > 100 µM (inactive) | 80.9 µM (inactive) |  | > 100 µM (inactive) | > 100 µM (inactive) | > 100 µM (inactive) | > 10 µM (inactive) | 25.9 µM (inactive) |  | 65.8 µM (inactive) |  | 83.9 µM (inactive) | > 100 µM (inactive) | > 100 µM (inactive) | 53.3 µM (inactive) | > 100 µM (inactive) | 81.8 µM (inactive) | 84.7 µM (inactive) | 24.5 µM (inactive)
C/C=C\C(CC(=O)NCCC1CN(C(=O)OCc2ccccc2)c2ccccc21)CC(=O)OC (centres undefined) | > 100 µM (inactive) | > 100 µM (inactive) | > 100 µM (inactive) | > 100 µM (inactive) | > 100 µM (inactive) | > 100 µM (inactive) | > 100 µM (inactive) | > 100 µM (inactive) |  | > 100 µM (inactive) | > 100 µM (inactive) |  | > 100 µM (inactive) | > 100 µM (inactive) | > 100 µM (inactive) | > 100 µM (inactive) | > 100 µM (inactive) | 50.5 µM (inactive) |  | 
Cc1cc(-c2[nH]c(C(=O)O)cc2I)on1 | 40.9 µM (inactive) | 68.7 µM (inactive) | > 100 µM (inactive) | > 100 µM (inactive) | > 100 µM (inactive) | > 100 µM (inactive) | 51.6 µM (inactive) | > 100 µM (inactive) |  | 67.9 µM (inactive) | 80 µM (inactive) |  | > 100 µM (inactive) | 29.2 µM (inactive) | > 100 µM (inactive) | 75.2 µM (inactive) | 20.2 µM (inactive) | > 100 µM (inactive) |  | 
O=c1[nH]c(=O)n(COCCO)c2ccsc12 | > 100 µM (inactive) | > 100 µM (inactive) | > 100 µM (inactive) | > 100 µM (inactive) | > 100 µM (inactive) | > 100 µM (inactive) | > 100 µM (inactive) | > 100 µM (inactive) | > 100 µM (inactive) | > 100 µM (inactive) | > 100 µM (inactive) | > 100 µM (inactive) | > 100 µM (inactive) | > 100 µM (inactive) | > 100 µM (inactive) | > 100 µM (inactive) | > 100 µM (inactive) | > 100 µM (inactive) |  | > 100 µM (inactive)
COC(=O)c1ccc(NCC2=CC(=O)C=CC2=O)cc1 | 13.6 µM (inactive) | 13.7 µM (inactive) | 18.5 µM (inactive) | 15.3 µM (inactive) | 4.38 µM (inactive) | 15.5 µM (inactive) | 10.6 µM (inactive) | 1.7 µM (inactive) | 5 µM (inactive) | 21.4 µM (inactive) | 4.06 µM (inactive) | 10.9 µM (inactive) | 21.6 µM (inactive) | 16.7 µM (inactive) | 4.55 µM (inactive) | 14.2 µM (inactive) | 13.9 µM (inactive) | 2.69 µM (inactive) |  | 2.33 µM (inactive)
COc1ccccc1NS(=O)(=O)c1ccc2ncn(NS(=O)(=O)c3ccc(Cl)cc3)c(=O)c2c1 | > 100 µM (inactive) | > 100 µM (inactive) |  | 45.2 µM (inactive) | > 100 µM (inactive) | > 100 µM (inactive) | > 100 µM (inactive) | > 100 µM (inactive) | > 100 µM (inactive) | 77.3 µM (inactive) | 5.86 µM (inactive) | > 100 µM (inactive) | > 100 µM (inactive) | 63 µM (inactive) | > 100 µM (inactive) | > 100 µM (inactive) | > 100 µM (inactive) | > 100 µM (inactive) |  | 85.7 µM (inactive)
